Test results: ChEMBL document CHEMBL1201861, “Genomics of Drug Sensitity in Cancer screening data, Wellcome Trust Sanger Institute”

Legend:
Test in all cases: cells
COLO-800 = format: functional, cell-based, Homo sapiens;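 note: growth inhibition of COLO-800 cells, read out with a cell viability assay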
Description: SANGER: Inhibition of human COLO-800 cell growth in a cell viability assay.

Calu-6 = format: functional, cell-based, Homo sapiens;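 note: growth of human Calu-6 cells, read out by a cell viability assay, IC50 marking inhibition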
Description: SANGER: Inhibition of human Calu-6 cell growth in a cell viability assay.

D-263MG = format: functional, cell-based, Homo sapiens
Description: SANGER: Inhibition of human D-263MG cell growth in a cell viability assay.

D-502MG = format: functional, cell-based, Homo sapiens
Description: SANGER: Inhibition of human D-502MG cell growth in a cell viability assay.

DMS-114 = format: functional, cell-based, Homo sapiens
DOHH-2 = format: functional, cell-based, Homo sapiens;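 note: growth inhibition of human DOHH-2 cells, read out with a cell viability assay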
Description: SANGER: Inhibition of human DOHH-2 cell growth in a cell viability assay.

EM-2 = format: functional, cell-based, Homo sapiens;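 note: growth inhibition of EM-2 cells, read out with a cell viability assay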
Description: SANGER: Inhibition of human EM-2 cell growth in a cell viability assay.

ES7 = format: functional, cell-based, Homo sapiens;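 note: growth inhibition of cultured human ES7 cells, read out as cell viability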
Description: SANGER: Inhibition of human ES7 cell growth in a cell viability assay.

EW-11 = format: functional, cell-based, Homo sapiens;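 note: growth inhibition of human EW-11 cells, measured with a cell viability assay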
Description: SANGER: Inhibition of human EW-11 cell growth in a cell viability assay.

EW-3 = format: functional, cell-based, Homo sapiens;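 note: cell viability assay read-out, IC50 reflects inhibition of growth of the EW-3 cells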
Description: SANGER: Inhibition of human EW-3 cell growth in a cell viability assay.

HAL-01 = format: functional, cell-based, Homo sapiens;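 note: growth inhibition of human HAL-01 cells, read out with a cell viability assay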
Description: SANGER: Inhibition of human HAL-01 cell growth in a cell viability assay.

HD-MY-Z = format: functional, cell-based, Homo sapiens;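 note: growth inhibition of HD-MY-Z cells, read out with a cell viability assay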
Description: SANGER: Inhibition of human HD-MY-Z cell growth in a cell viability assay.

HT = format: functional, cell-based, Homo sapiens
Description: SANGER: Inhibition of human HT cell growth in a cell viability assay.

HT-144 = format: functional, cell-based, Homo sapiens
Description: SANGER: Inhibition of human HT-144 cell growth in a cell viability assay.

J-RT3-T3-5 = format: functional, cell-based, Homo sapiens;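 note: cell viability assay measuring growth inhibition of human J-RT3-T3-5 cells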
Description: SANGER: Inhibition of human J-RT3-T3-5 cell growth in a cell viability assay.

K5 = format: functional, cell-based, Homo sapiens
Description: SANGER: Inhibition of human K5 cell growth in a cell viability assay.

KMOE-2 = format: functional, cell-based, Homo sapiens;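 note: growth inhibition of human KMOE-2 cells, read out with a cell viability assay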
Description: SANGER: Inhibition of human KMOE-2 cell growth in a cell viability assay.

L-428 = format: functional, cell-based, Homo sapiens
Description: SANGER: Inhibition of human L-428 cell growth in a cell viability assay.

LNCaP-Clone-FGC = format: functional, cell-based, Homo sapiens
Description: SANGER: Inhibition of human LNCaP-Clone-FGC cell growth in a cell viability assay.

LOX IMVI = format: functional, cell-based, Homo sapiens
Description: SANGER: Inhibition of human LOXIMVI cell growth in a cell viability assay.

LS-411N = format: functional, cell-based, Homo sapiens
LXF-289 cell line = format: functional, cell-based, Homo sapiens
Description: SANGER: Inhibition of human LXF-289 cell growth in a cell viability assay.

MC116 = format: functional, cell-based, Homo sapiens;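 note: growth inhibition of MC116 cells, read out with a cell viability assay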
Description: SANGER: Inhibition of human MC116 cell growth in a cell viability assay.

MLMA = format: functional, cell-based, Homo sapiens;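 note: growth inhibition of MLMA cells (human), determined through a cell viability readout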
Description: SANGER: Inhibition of human MLMA cell growth in a cell viability assay.

MV4-11 = format: functional, cell-based, Homo sapiens, MV-4-11;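 note: cell viability readout measuring growth inhibition of human MV-4-11 cells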
Description: SANGER: Inhibition of human MV-4-11 cell growth in a cell viability assay.

NB12 = format: functional, cell-based, Homo sapiens;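 note: growth inhibition of human NB12 cells, read out by a cell viability assay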
Description: SANGER: Inhibition of human NB12 cell growth in a cell viability assay.

NCI-H1092 = format: functional, cell-based, Homo sapiens;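 note: cell growth inhibition measured with a cell viability assay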
Description: SANGER: Inhibition of human NCI-H1092 cell growth in a cell viability assay.

NCI-H1355 = format: functional, cell-based, Homo sapiens;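 note: growth inhibition of human NCI-H1355 cells, read out by a cell viability assay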
Description: SANGER: Inhibition of human NCI-H1355 cell growth in a cell viability assay.

NCI-H23 = format: functional, cell-based, Homo sapiens;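 note: cell viability assay measuring growth inhibition of NCI-H23 cells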
Description: SANGER: Inhibition of human NCI-H23 cell growth in a cell viability assay.

NCI-H747 = format: functional, cell-based, Homo sapiens;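 note: growth inhibition of human NCI-H747 cells, read out by a cell viability assay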
Description: SANGER: Inhibition of human NCI-H747 cell growth in a cell viability assay.

OVCAR-4 = format: functional, cell-based, Homo sapiens;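 note: growth inhibition of human OVCAR-4 cells, measured with a cell viability assay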
Description: SANGER: Inhibition of human OVCAR-4 cell growth in a cell viability assay.

RCC10RGB = format: functional, cell-based, Homo sapiens;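 note: growth inhibition of human RCC10RGB cells, read out by a cell viability assay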
Description: SANGER: Inhibition of human RCC10RGB cell growth in a cell viability assay.

RH-1 = format: functional, cell-based, Homo sapiens;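 note: growth inhibition of human RH-1 cells, read out with a cell viability assay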
Description: SANGER: Inhibition of human RH-1 cell growth in a cell viability assay.

RKO = format: functional, cell-based, Homo sapiens;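 note: growth inhibition of human RKO cells, read out with a cell viability assay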
Description: SANGER: Inhibition of human RKO cell growth in a cell viability assay.

SF-126 = format: functional, cell-based, Homo sapiens;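 note: growth inhibition of human SF126 cells, read out with a cell viability assay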
Description: SANGER: Inhibition of human SF126 cell growth in a cell viability assay.

SJSA-1 = format: functional, cell-based, Homo sapiens;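 note: growth inhibition of human SJSA-1 cells, read out through a cell viability measurement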
Description: SANGER: Inhibition of human SJSA-1 cell growth in a cell viability assay.

SK-LMS-1 = format: functional, cell-based, Homo sapiens;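 note: growth inhibition of human SK-LMS-1 cells, read out with a cell viability assay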
Description: SANGER: Inhibition of human SK-LMS-1 cell growth in a cell viability assay.

SNB-75 = format: functional, cell-based, Homo sapiens;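 note: cell viability assay measuring growth inhibition of human SNB-75 cells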
Description: SANGER: Inhibition of human SNB75 cell growth in a cell viability assay.

TE-1 = format: functional, cell-based, Homo sapiens
Description: SANGER: Inhibition of human TE-1 cell growth in a cell viability assay.

A498 = format: functional, cell-based, Homo sapiens;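 note: growth inhibition of human A498 cells, read out with a cell viability assay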
Description: SANGER: Inhibition of human A498 cell growth in a cell viability assay.

A704 = format: functional, cell-based, Homo sapiens;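 note: growth inhibition of human A704 cells, read out with a cell viability assay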
Description: SANGER: Inhibition of human A704 cell growth in a cell viability assay.

BB65-RCC = format: functional, cell-based, Homo sapiens;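 note: growth inhibition of the cell line, measured with a cell viability assay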
Description: SANGER: Inhibition of human BB65-RCC cell growth in a cell viability assay.

BV-173 = format: functional, cell-based, Homo sapiens
Description: SANGER: Inhibition of human BV-173 cell growth in a cell viability assay.

C8166 = format: functional, cell-based, Homo sapiens;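 note: growth inhibition of human C8166 cells measured by a cell viability assay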
Description: SANGER: Inhibition of human C8166 cell growth in a cell viability assay.

TE-10 = format: functional, cell-based, Homo sapiens;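 note: growth inhibition of TE-10 cells, measured by a cell viability assay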
Description: SANGER: Inhibition of human TE-10 cell growth in a cell viability assay.

TE-11 = format: functional, cell-based, Homo sapiens;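 note: growth inhibition of human TE-11 cells, read out by a cell viability assay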
Description: SANGER: Inhibition of human TE-11 cell growth in a cell viability assay.

TK-10 = format: functional, cell-based, Homo sapiens;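 note: growth inhibition of TK-10 cells, read out in a cell viability assay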
Description: SANGER: Inhibition of human TK10 cell growth in a cell viability assay.

no-11 = format: functional, cell-based, Homo sapiens;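 note: growth inhibition of human NO-11 cells, read out with a cell viability assay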
Description: SANGER: Inhibition of human no-11 cell growth in a cell viability assay.

Molecule `Nc1cccc2c1CN(C1CCC(=O)NC1=O)C2=O` (centres undefined) [LENALIDOMIDE] has an IC50 (COLO-800; Homo sapiens, COLO-800) greater than 5 µM, an IC50 (Calu-6; Homo sapiens, Calu-6) greater than 5 µM and an IC50 (D-263MG; Homo sapiens, D-263MG) greater than 5 µM. For the same molecule, the IC50 (D-502MG; Homo sapiens, D-502MG) was greater than 5 µM, the IC50 (DMS-114; Homo sapiens, DMS-114) was greater than 5 µM and the IC50 (DOHH-2; Homo sapiens, DOHH-2) was greater than 5 µM. The IC50 (EM-2; Homo sapiens, EM-2) was greater than 5 µM, the IC50 (ES7; Homo sapiens, ES7) was greater than 5 µM and the IC50 (EW-11; Homo sapiens, EW-11) was greater than 5 µM. For the same molecule, the IC50 (EW-3; Homo sapiens, EW-3) was greater than 5 µM, the IC50 (HAL-01; Homo sapiens, HAL-01) was greater than 5 µM and the IC50 (HD-MY-Z; Homo sapiens, HD-MY-Z) was greater than 5 µM. The IC50 (HT; Homo sapiens, HT) was greater than 5 µM, the IC50 (HT-144; Homo sapiens, HT-144) was greater than 5 µM and the IC50 (J-RT3-T3-5; Homo sapiens, J-RT3-T3-5) was greater than 5 µM. The IC50 (K5; Homo sapiens, K5) was greater than 5 µM, the IC50 (KMOE-2; Homo sapiens, KMOE-2) was greater than 5 µM and the IC50 (L-428; Homo sapiens, L-428) was greater than 5 µM. The IC50 (LNCaP-Clone-FGC; Homo sapiens, LNCaP-Clone-FGC) was greater than 5 µM, the IC50 (LOX IMVI; Homo sapiens, LOX IMVI) was greater than 5 µM and the IC50 (LS-411N; Homo sapiens, LS-411N) was greater than 5 µM. It also gave an IC50 (LXF-289 cell line; Homo sapiens, LXF-289) greater than 5 µM, an IC50 (MC116; Homo sapiens, MC116) greater than 5 µM and an IC50 (MLMA; Homo sapiens, MLMA) greater than 5 µM. It also gave an IC50 (MV4-11; Homo sapiens, MV4-11) greater than 5 µM, an IC50 (NB12; Homo sapiens, NB12) greater than 5 µM and an IC50 (NCI-H1092; Homo sapiens, NCI-H1092) greater than 5 µM. For the same molecule, the IC50 (NCI-H1355; Homo sapiens, NCI-H1355) was greater than 5 µM, the IC50 (NCI-H23; Homo sapiens, NCI-H23) was greater than 5 µM and the IC50 (NCI-H747; Homo sapiens, NCI-H747) was greater than 5 µM. For the same molecule, the IC50 (OVCAR-4; Homo sapiens, OVCAR-4) was greater than 5 µM, the IC50 (RCC10RGB; Homo sapiens, RCC10RGB) was greater than 5 µM and the IC50 (RH-1; Homo sapiens, RH-1) was greater than 5 µM. For the same molecule, the IC50 (RKO; Homo sapiens, RKO) was greater than 5 µM, the IC50 (SF-126; Homo sapiens, SF-126) was greater than 5 µM and the IC50 (SJSA-1; Homo sapiens, SJSA-1) was greater than 5 µM. It also gave an IC50 (SK-LMS-1; Homo sapiens, SK-LMS-1) greater than 5 µM, an IC50 (SNB-75; Homo sapiens, SNB-75) greater than 5 µM and an IC50 (TE-1; Homo sapiens, TE-1) greater than 5 µM. It also gave an IC50 (A498; Homo sapiens, A498) greater than 5 µM, an IC50 (A704; Homo sapiens, A704) greater than 5 µM and an IC50 (BB65-RCC; Homo sapiens, BB65-RCC) greater than 5 µM. For the same molecule, the IC50 (BV-173; Homo sapiens, BV-173) was greater than 5 µM, the IC50 (C8166; Homo sapiens, C8166) was greater than 5 µM and the IC50 (TE-10; Homo sapiens, TE-10) was greater than 5 µM. It also gave an IC50 (TE-11; Homo sapiens, TE-11) greater than 5 µM, an IC50 (TK-10; Homo sapiens, TK-10) greater than 5 µM and an IC50 (no-11; Homo sapiens) greater than 5 µM.
Molecule `Cc1cn(-c2cc(NC(=O)c3ccc(C)c(Nc4nccc(-c5cccnc5)n4)c3)cc(C(F)(F)F)c2)cn1` [NILOTINIB] has an IC50 (COLO-800; Homo sapiens, COLO-800) greater than 2 µM, an IC50 (Calu-6; Homo sapiens, Calu-6) greater than 2 µM and an IC50 (D-263MG; Homo sapiens, D-263MG) greater than 2 µM. The IC50 (D-502MG; Homo sapiens, D-502MG) was greater than 2 µM, the IC50 (DMS-114; Homo sapiens, DMS-114) was greater than 2 µM and the IC50 (DOHH-2; Homo sapiens, DOHH-2) was greater than 2 µM. The IC50 (EM-2; Homo sapiens, EM-2) was 0.0041 µM, the IC50 (ES7; Homo sapiens, ES7) was greater than 2 µM and the IC50 (EW-11; Homo sapiens, EW-11) was greater than 2 µM. The IC50 (EW-3; Homo sapiens, EW-3) was greater than 2 µM, the IC50 (HAL-01; Homo sapiens, HAL-01) was greater than 2 µM and the IC50 (HD-MY-Z; Homo sapiens, HD-MY-Z) was greater than 2 µM. For the same molecule, the IC50 (HT; Homo sapiens, HT) was greater than 2 µM, the IC50 (HT-144; Homo sapiens, HT-144) was greater than 2 µM and the IC50 (J-RT3-T3-5; Homo sapiens, J-RT3-T3-5) was greater than 2 µM. It also gave an IC50 (K5; Homo sapiens, K5) greater than 2 µM, an IC50 (KMOE-2; Homo sapiens, KMOE-2) greater than 2 µM and an IC50 (L-428; Homo sapiens, L-428) greater than 2 µM. It also gave an IC50 (LNCaP-Clone-FGC; Homo sapiens, LNCaP-Clone-FGC) greater than 2 µM, an IC50 (LOX IMVI; Homo sapiens, LOX IMVI) greater than 2 µM and an IC50 (LS-411N; Homo sapiens, LS-411N) greater than 2 µM. For the same molecule, the IC50 (LXF-289 cell line; Homo sapiens, LXF-289) was greater than 2 µM, the IC50 (MC116; Homo sapiens, MC116) was greater than 2 µM and the IC50 (MLMA; Homo sapiens, MLMA) was greater than 2 µM. It also gave an IC50 (MV4-11; Homo sapiens, MV4-11) greater than 2 µM, an IC50 (NB12; Homo sapiens, NB12) greater than 2 µM and an IC50 (NCI-H1092; Homo sapiens, NCI-H1092) greater than 2 µM. The IC50 (NCI-H1355; Homo sapiens, NCI-H1355) was greater than 2 µM, the IC50 (NCI-H23; Homo sapiens, NCI-H23) was greater than 2 µM and the IC50 (NCI-H747; Homo sapiens, NCI-H747) was greater than 2 µM. For the same molecule, the IC50 (OVCAR-4; Homo sapiens, OVCAR-4) was greater than 2 µM, the IC50 (RCC10RGB; Homo sapiens, RCC10RGB) was greater than 2 µM and the IC50 (RH-1; Homo sapiens, RH-1) was greater than 2 µM. It also gave an IC50 (RKO; Homo sapiens, RKO) greater than 2 µM, an IC50 (SF-126; Homo sapiens, SF-126) greater than 2 µM and an IC50 (SJSA-1; Homo sapiens, SJSA-1) greater than 2 µM. For the same molecule, the IC50 (SK-LMS-1; Homo sapiens, SK-LMS-1) was greater than 2 µM, the IC50 (SNB-75; Homo sapiens, SNB-75) was greater than 2 µM and the IC50 (TE-1; Homo sapiens, TE-1) was greater than 2 µM. The IC50 (A498; Homo sapiens, A498) was greater than 2 µM, the IC50 (A704; Homo sapiens, A704) was greater than 2 µM and the IC50 (BB65-RCC; Homo sapiens, BB65-RCC) was greater than 2 µM. For the same molecule, the IC50 (BV-173; Homo sapiens, BV-173) was 0.0109 µM, the IC50 (C8166; Homo sapiens, C8166) was greater than 2 µM and the IC50 (TE-10; Homo sapiens, TE-10) was greater than 2 µM. The IC50 (TE-11; Homo sapiens, TE-11) was greater than 2 µM, the IC50 (TK-10; Homo sapiens, TK-10) was greater than 2 µM and the IC50 (no-11; Homo sapiens) was greater than 2 µM.
With CISPLATIN the IC50 (COLO-800; colo-800) was 20.1 µM, the IC50 (Calu-6; calu-6) was 75.8 µM and the IC50 (D-263MG; d-263mg) was 6.66 µM. The IC50 (D-502MG; d-502mg) was 33.1 µM, the IC50 (DMS-114; dms-114) was 19.6 µM and the IC50 (DOHH-2; dohh-2) was 4.23 µM. It also gave an IC50 (EM-2; em-2) of 71.2 µM, an IC50 (ES7; es7) of 1.87 µM and an IC50 (EW-11; ew-11) of 21 µM. The IC50 (EW-3; ew-3) was 1.6 µM, the IC50 (HAL-01; hal-01) was 109 µM and the IC50 (HD-MY-Z; hd-my-z) was 18 µM. It also gave an IC50 (HT; ht) of 252 µM, an IC50 (HT-144; ht-144) of 3.58 µM and an IC50 (J-RT3-T3-5; j-rt3-t3-5) of 148 µM. It also gave an IC50 (K5; k5) of 3.73 µM, an IC50 (KMOE-2; kmoe-2) of 25.2 µM and an IC50 (L-428; l-428) of 18.9 µM. It also gave an IC50 (LNCaP-Clone-FGC; lncap-clone-fgc) of 515 µM, an IC50 (LOX IMVI; lox imvi) of 13.3 µM and an IC50 (LS-411N; ls-411n) of 66.4 µM. For the same molecule, the IC50 (LXF-289 cell line; lxf-289) was 52.7 µM, the IC50 (MC116; mc116) was 86.9 µM and the IC50 (MLMA; mlma) was 19.2 µM. For the same molecule, the IC50 (MV4-11; mv-4-11) was 3.46 µM, the IC50 (NB12; nb12) was 166 µM and the IC50 (NCI-H1092; nci-h1092) was 15.4 µM. It also gave an IC50 (NCI-H1355; nci-h1355) of 6.63 µM, an IC50 (NCI-H23; nci-h23) of 40 µM and an IC50 (NCI-H747; nci-h747) of 16.9 µM. It also gave an IC50 (OVCAR-4; ovcar-4) of 22.3 µM, an IC50 (RCC10RGB; rcc10rgb) of 917 µM and an IC50 (RH-1; rh-1) of 333 µM. It also gave an IC50 (RKO; rko) of 66.8 µM, an IC50 (SF-126; sf-126) of 12.1 µM and an IC50 (SJSA-1; sjsa-1) of 23 µM. For the same molecule, the IC50 (SK-LMS-1; sk-lms-1) was 814 µM, the IC50 (SNB-75; snb-75) was 48 µM and the IC50 (TE-1; te-1) was 38.5 µM. The IC50 (A498; a498) was 19.6 µM, the IC50 (A704; a704) was 115 µM and the IC50 (BB65-RCC; bb65-rcc) was 2.82 µM. For the same molecule, the IC50 (BV-173; bv-173) was 42.1 µM, the IC50 (C8166; c8166) was 208 µM and the IC50 (TE-10; te-10) was 158 µM. For the same molecule, the IC50 (TE-11; te-11) was 16.4 µM, the IC50 (TK-10; tk-10) was 31 µM and the IC50 (no-11) was 15.6 µM.
